Measured values reported in ChEMBL document CHEMBL3638446, “Quinoxaline inhibitors of phosphoinositide-3-kinases (PI3Ks)” (2013).

Target: Phosphatidylinositol 4,5-bisphosphate 3-kinase catalytic subunit gamma isoform (Homo sapiens, UniProt P48736)
Test: Biological Assay: The assay combines the scintillation proximity assay technology (SPA, Amersham) with the capacity of neomycin (a polycationic antibiotic) to bind phospholipids with high affinity and specificity. The Scintillation Proximity Assay is based on the properties of weakly emitting isotopes (such as 3H, 125I, 33P). Coating SPA beads with neomycin allows the detection of phosphorylated lipid substrates after incubation with recombinant PI3K and radioactive ATP in the same well, by capturing the radioactive phospholipids to the SPA beads through their specific binding to neomycin.

Sequence of Phosphatidylinositol 4,5-bisphosphate 3-kinase catalytic subunit gamma isoform (P48736 whole entry, canonical isoform): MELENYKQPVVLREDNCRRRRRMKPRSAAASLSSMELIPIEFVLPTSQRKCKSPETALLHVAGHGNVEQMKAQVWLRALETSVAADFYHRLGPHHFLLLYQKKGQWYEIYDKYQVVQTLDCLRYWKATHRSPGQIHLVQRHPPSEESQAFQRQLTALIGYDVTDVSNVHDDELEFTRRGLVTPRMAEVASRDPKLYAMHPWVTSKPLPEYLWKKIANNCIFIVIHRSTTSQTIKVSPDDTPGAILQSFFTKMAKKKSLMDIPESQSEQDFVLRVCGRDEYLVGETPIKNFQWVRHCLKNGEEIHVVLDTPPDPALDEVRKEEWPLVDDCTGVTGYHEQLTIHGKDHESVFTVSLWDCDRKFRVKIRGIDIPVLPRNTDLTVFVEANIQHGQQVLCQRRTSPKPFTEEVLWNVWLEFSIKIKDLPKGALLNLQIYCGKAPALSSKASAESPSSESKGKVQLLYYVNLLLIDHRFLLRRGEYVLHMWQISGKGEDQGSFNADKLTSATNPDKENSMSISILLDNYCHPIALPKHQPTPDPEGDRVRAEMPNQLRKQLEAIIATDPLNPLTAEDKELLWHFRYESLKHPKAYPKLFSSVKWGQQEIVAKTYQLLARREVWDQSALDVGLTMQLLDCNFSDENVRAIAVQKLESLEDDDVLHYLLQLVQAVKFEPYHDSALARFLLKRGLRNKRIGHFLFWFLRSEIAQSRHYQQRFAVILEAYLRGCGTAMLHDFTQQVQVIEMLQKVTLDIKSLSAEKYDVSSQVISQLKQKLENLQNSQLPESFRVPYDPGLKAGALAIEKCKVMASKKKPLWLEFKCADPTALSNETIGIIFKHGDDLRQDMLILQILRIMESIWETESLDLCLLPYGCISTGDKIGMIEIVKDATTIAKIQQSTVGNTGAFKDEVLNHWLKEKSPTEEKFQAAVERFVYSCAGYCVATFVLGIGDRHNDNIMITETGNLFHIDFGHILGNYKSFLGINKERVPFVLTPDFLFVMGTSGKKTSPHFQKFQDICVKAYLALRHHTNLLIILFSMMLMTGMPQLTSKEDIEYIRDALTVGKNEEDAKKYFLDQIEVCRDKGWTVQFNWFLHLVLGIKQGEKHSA

SMILES: COc1ccc(CC2CCOCC2)c(Nc2nc3ccccc3nc2NS(=O)(=O)c2ccc(CN(C)C)cc2)c1
- IC50: 0.03 µM
